Molecules are shown by their SMILES. Some results are limits rather than exact numbers.

For the first series, the target named is T1, soluble guanylate cyclase (sGC) (Bos taurus, UniProt P16068+P19687).
T1 construct: The sGC employed had been isolated from bovine lung; from tissue; host or cells: bovine lung
T1 sequence (P19687 1-691): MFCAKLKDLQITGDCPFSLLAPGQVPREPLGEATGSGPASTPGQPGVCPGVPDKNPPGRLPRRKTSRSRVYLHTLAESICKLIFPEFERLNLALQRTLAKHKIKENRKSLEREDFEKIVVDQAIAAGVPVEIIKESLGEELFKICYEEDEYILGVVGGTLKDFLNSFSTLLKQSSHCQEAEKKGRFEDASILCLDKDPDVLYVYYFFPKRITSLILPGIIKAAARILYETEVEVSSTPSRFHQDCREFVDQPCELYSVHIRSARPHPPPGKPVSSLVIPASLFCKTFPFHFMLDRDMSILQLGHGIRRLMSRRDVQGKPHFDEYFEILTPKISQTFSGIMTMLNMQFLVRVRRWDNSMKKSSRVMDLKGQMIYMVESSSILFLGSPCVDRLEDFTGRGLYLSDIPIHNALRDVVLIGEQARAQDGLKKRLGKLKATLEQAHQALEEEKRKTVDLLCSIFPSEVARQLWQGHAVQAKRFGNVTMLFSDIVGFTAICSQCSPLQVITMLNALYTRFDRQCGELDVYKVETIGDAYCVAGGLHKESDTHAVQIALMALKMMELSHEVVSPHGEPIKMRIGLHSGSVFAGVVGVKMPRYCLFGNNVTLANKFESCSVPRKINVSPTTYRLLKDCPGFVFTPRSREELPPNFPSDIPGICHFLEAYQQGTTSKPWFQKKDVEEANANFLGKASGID
T1 sequence (P16068 1-619): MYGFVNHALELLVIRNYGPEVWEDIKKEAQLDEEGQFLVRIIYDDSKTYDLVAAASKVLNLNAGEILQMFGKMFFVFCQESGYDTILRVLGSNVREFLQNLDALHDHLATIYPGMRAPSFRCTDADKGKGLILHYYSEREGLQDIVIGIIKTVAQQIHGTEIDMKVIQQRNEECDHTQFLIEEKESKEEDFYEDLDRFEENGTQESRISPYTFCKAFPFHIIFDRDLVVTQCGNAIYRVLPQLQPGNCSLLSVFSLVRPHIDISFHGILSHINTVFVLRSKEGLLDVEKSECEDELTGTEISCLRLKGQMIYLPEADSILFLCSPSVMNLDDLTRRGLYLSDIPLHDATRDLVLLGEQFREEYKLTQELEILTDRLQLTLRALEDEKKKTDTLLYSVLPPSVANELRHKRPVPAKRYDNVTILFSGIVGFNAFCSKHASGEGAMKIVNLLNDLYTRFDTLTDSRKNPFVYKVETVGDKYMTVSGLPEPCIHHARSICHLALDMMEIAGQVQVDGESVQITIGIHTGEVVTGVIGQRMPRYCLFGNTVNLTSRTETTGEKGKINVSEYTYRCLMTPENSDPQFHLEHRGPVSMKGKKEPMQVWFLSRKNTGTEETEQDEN
As to the kind of experiment: Activation of soluble guanylate cyclase (cGMP enzyme immunoassay). Format: biochemical. The settings on record: test substance 50 μM; sGC isolated from bovine lung; [cGMP]test substance/[cGMP]control (basal activity with solvent); 37° C., 15 to 20 minutes. The protocol:
The activation of soluble guanylate cyclase (sGC), which catalyzes the conversion of guanosine triphosphate (GTP) to cyclic guanosine monophosphate (cGMP) and pyrophosphate, by the compounds according to the invention was quantified with the aid of an enzyme immunoassay (EIA) from Amersham. For this, the test substances were first incubated with sGC in microtiter plates and then the quantity of the resulting cGMP was determined.
The sGC employed had been isolated from bovine lung (see Methods in Enzymology, Volume 195, p. 377). The test solutions (100 μl per well) contained 50 mM triethanolamine (TEA) buffer (pH 7.5), 3 mM MgCl2, 3 mM reduced glutathione (GSH), 0.1 mM GTP, 1 mM 3-isobutyl-1-methylxanthine (IBMX), suitably diluted enzyme solution and the test substance or, in the control experiments, solvent. The test substances were dissolved in dimethyl sulfoxide (DMSO) and the solution was diluted with DMSO/water such that the final concentration c of test substance in the test batch was 50 μM. The DMSO concentration in the test batch was 5% (v/v). The reaction was started by addition of the sGC. The reaction mix was incubated at 37° C. for 15 to 20 minutes and then stopped by ice-cooling and addition of the stop reagent (50 mM EDTA, pH 8.0). An aliquot of 50 μl was taken and employed for the determination of the cGMP content using the acetylation protocol of the Amersham cGMP EIA kit. The absorption of the samples was measured at 450 nm (reference wavelength 620 nm) in a microtiter plate reading apparatus. The cGMP concentration was determined by means of a calibration curve, which was obtained under the same experimental conditions. The activation of the sGC by a test substance is indicated as n-fold stimulation of the basal enzyme activity which was found in the control experiments (with solvent instead of test substance) (calculated according to the formula n-fold stimulation=[cGMP]test substance/[cGMP]control).
For the compound `CC(C)c1cc(NC2CCC(O)CC2)nc(-c2cc(Cl)cc(Cl)c2)n1` (stereo not drawn) [Example 77], the “n-fold stimulation at c = 50 μM” value was determined as 30 n-fold.

Consider `CC(C)c1cc(N2CCC(C(N)=O)CC2)nc(-c2ccc(Cl)cc2)n1` [Example 44], for which the “n-fold stimulation at c = 50 μM” value was >4 n-fold.

In the case of `Cc1ccc(-c2nc(C(C)C)cc(N3CCC(C(N)=O)CC3)n2)cc1` [Example 99], the “n-fold stimulation at c = 50 μM” value is >4 n-fold.

For the compound `Cc1ccc(-c2nc(C(C)C)cc(N3CCOCC3)n2)cc1` [Example 89], the “n-fold stimulation at c = 50 μM” value was >8 n-fold.

On to `Clc1ccc(-c2nc(-c3ccccc3)cc(N3CCCCCC3)n2)cc1` [Example 112], for which the “n-fold stimulation at c = 50 μM” value is reported as >8 n-fold.

With `CCCN(CCC)c1cc(C(C)C)nc(-c2ccc(C)cc2)n1` [Example 85], the “n-fold stimulation at c = 50 μM” value is >16 n-fold.

In the case of `CC(C)c1cc(N2CCCC2)nc(-c2ccc(Cl)cc2)n1.Cl` [Example 29], the “n-fold stimulation at c = 50 μM” value was >4 n-fold.

Regarding `CC(C)c1cc(N[C@H]2CC[C@H](O)CC2)nc(-c2ccc(Cl)cc2)n1` [Example 125], the “n-fold stimulation at c = 50 μM” value is reported as 32 n-fold.

In the case of `COCCCNc1cc(C(C)C)nc(-c2ccc(C)cc2)n1` [Example 23], the “n-fold stimulation at c = 50 μM” value was >8 n-fold.

As for `Cc1ccc(-c2nc(C(C)C)cc(N3C[C@@H](C)O[C@@H](C)C3)n2)cc1` [Example 97], the “n-fold stimulation at c = 50 μM” value is >16 n-fold.

In the case of `Cc1ccc(-c2nc(C(C)C)cc(N3CCCCCC3)n2)cc1` [Example 100], the “n-fold stimulation at c = 50 μM” value is on record as >8 n-fold.

On to `Cc1ccc(-c2nc(NC3CCC(O)CC3)cc(C(C)C)n2)cc1` (stereo not drawn) [Example 25], for which the “n-fold stimulation at c = 50 μM” value was 28 n-fold.

In the case of `CCN(CC)c1cc(-c2ccccc2)nc(-c2ccc(Cl)cc2)n1` [Example 63], the “n-fold stimulation at c = 50 μM” value is on record as >4 n-fold.

For the compound `CCN(CC)c1cc(C(C)C)nc(-c2ccc(Cl)cc2)n1` [Example 33], the “n-fold stimulation at c = 50 μM” value is on record as >16 n-fold.

For the compound `CCN(CC)c1cc(C(C)C)nc(-c2cc(Cl)cc(Cl)c2)n1` [Example 80], the “n-fold stimulation at c = 50 μM” value is >16 n-fold.

With `CCN(CC)c1cc(C(C)C)nc(-c2ccc(C)cc2)n1.Cl` [Example 86], the “n-fold stimulation at c = 50 μM” value is >16 n-fold.

Regarding `CCCN(CCC)c1cc(C(C)C)nc(-c2ccc(Cl)cc2)n1.Cl` [Example 35], the “n-fold stimulation at c = 50 μM” value is reported as >16 n-fold.

In the case of `CCCN(CCC)c1cc(-c2ccccc2)nc(-c2ccc(Cl)cc2)n1` [Example 69], the “n-fold stimulation at c = 50 μM” value was >4 n-fold.

Consider `CCCCNc1cc(C(C)C)nc(-c2ccc(C)cc2)n1` [Example 88], for which the “n-fold stimulation at c = 50 μM” value is given as >8 n-fold.

With `CCCCNc1cc(C(C)C)nc(-c2ccc(Cl)cc2)n1` [Example 32], the “n-fold stimulation at c = 50 μM” value was >4 n-fold.

`CC(C)c1cc(N2CCSC2)nc(-c2ccc(Cl)cc2)n1` [Example 45]: the “n-fold stimulation at c = 50 μM” value is on record as >4 n-fold.

In the case of `CC(C)(C)c1cc(N2CCSCC2)nc(-c2ccc(Cl)cc2)n1` [Example 66], the “n-fold stimulation at c = 50 μM” value is reported as >4 n-fold.

Regarding `CC(C)c1cc(N2CCSCC2)nc(-c2cc(Cl)cc(Cl)c2)n1` [Example 82], the “n-fold stimulation at c = 50 μM” value was >4 n-fold.

Turning to `CC(C)c1cc(NCCCCO)nc(-c2ccc(Cl)cc2)n1` [Example 137], the “n-fold stimulation at c = 50 μM” value was >16 n-fold.

For the compound `CCN(Cc1ccccc1)c1cc(C(C)C)nc(-c2ccc(Cl)cc2)n1` [Example 43], the “n-fold stimulation at c = 50 μM” value is recorded as >4 n-fold.

On to `CC(C)c1cc(NC2CCCC2)nc(-c2ccc(Cl)cc2)n1` [Example 124], for which the “n-fold stimulation at c = 50 μM” value is given as >16 n-fold.

Consider `CC(C)c1cc(N2CCSCC2)nc(-c2ccc(Cl)cc2)n1.Cl` [Example 30], for which the “n-fold stimulation at c = 50 μM” value was >4 n-fold.

In the case of `CCCCN(CCCC)c1cc(C(C)C)nc(-c2ccc(Cl)cc2)n1.Cl` [Example 34], the “n-fold stimulation at c = 50 μM” value is recorded as >4 n-fold.

For `CC(C)(C)c1cc(N2CCOCC2)nc(-c2ccc(Cl)cc2)n1` [Example 52], the “n-fold stimulation at c = 50 μM” value was >8 n-fold.

`CC(C)c1cc(N2CCCCCC2)nc(-c2ccc(Cl)cc2)n1` [Example 38]: the “n-fold stimulation at c = 50 μM” value is reported as >8 n-fold.

On to `CC(C)c1cc(N2CCOCC2)nc(-c2cc(Cl)cc(Cl)c2)n1` [Example 81], for which the “n-fold stimulation at c = 50 μM” value is >4 n-fold.

As to `CCCCNc1cc(C(C)C)nc(-c2cc(Cl)cc(Cl)c2)n1.Cl` [Example 79], the “n-fold stimulation at c = 50 μM” value is >4 n-fold.

Consider `COCCN(CCOC)c1cc(C(C)C)nc(-c2ccc(C)cc2)n1` [Example 98], for which the “n-fold stimulation at c = 50 μM” value was >8 n-fold.

As for `C=CCN(CC=C)c1cc(C(C)C)nc(-c2ccc(Cl)cc2)n1` [Example 36], the “n-fold stimulation at c = 50 μM” value is >8 n-fold.

Regarding `CC(C)(C)c1cc(N[C@H]2CC[C@H](O)CC2)nc(-c2ccc(Cl)cc2)n1` [Example 133], the “n-fold stimulation at c = 50 μM” value is listed as >16 n-fold.

As for `Cc1ccc(-c2nc(C(C)C)cc(N3CCSCC3)n2)cc1` [Example 90], the “n-fold stimulation at c = 50 μM” value is given as >16 n-fold.

For the compound `CCCN(CCC)c1cc(C(C)C)nc(-c2cc(Cl)cc(Cl)c2)n1` [Example 84], the “n-fold stimulation at c = 50 μM” value is listed as >16 n-fold.

Tested on in the next series: not given
Test: not given
Conditions: not given
What is called melting point is the temperature of the solid-liquid transition. Consider `CC(C)c1cc([SH]2(=O)CCNC2)nc(-c2ccc(Cl)cc2)n1` [Example 146, 2-(4-Chlorophenyl)6-isopropyl-4-(1-oxo-1,3-thiazolidin-1-yl)pyrimidine], for which the melting point is 128 °C.

In the case of `CC[S+]([O-])CCNc1cc(C(C)C)nc(-c2ccc(Cl)cc2)n1` (stereo not drawn) [Example 147, 2-(4-Chlorophenyl)-4-((2-ethylsulfinylethyl)amino)-6-isopropylpyrimidine], the melting point is 103 °C.

As to `CC(C)c1cc(N2CC[S+]([O-])CC2)nc(-c2cc(Cl)cc(Cl)c2)n1` [Example 149, 2-(3,5-dichlorophenyl)-6-isopropyl-4-(1-oxothiomorpholino)pyrimidine], the melting point is 187 °C.

Turning to `Cc1ccc(-c2nc(C(C)C)cc(N3CC[S+]([O-])CC3)n2)cc1` [Example 148, 6-Isopropyl-2-(4-methylphenyl)-4-(1-oxothiomorpholino)pyrimidine], the melting point came to 152 °C.

As to `CC(C)c1cc(N2CCS(=O)(=O)CC2)nc(-c2ccc(Cl)cc2)n1` [Example 145, 2-(4-Chlorophenyl)-6-isopropyl-4-(1,1-dioxothiomorpholino)pyrimidine], the melting point turned out to be 226 °C.

Source of the values: patent US6844347B1, “Substituted 4-amino-2aryl-pyrimidines, their production and use and pharmaceutical preparations containing same” (Aventis Pharma Deutschland GmbH, priority 1998, dated 2005).
